From publication PMC6757277, “Structural Basis of Glycerophosphodiester Recognition by the Mycobacterium tuberculosis Substrate-Binding Protein UgpB” (ACS Chemical Biology, 2019)

Molecular target: Mtb UgpB (Mycobacterium tuberculosis, UniProt P71619)
Test: biochemical

Mtb UgpB, sequence (P71619 entry or part of it): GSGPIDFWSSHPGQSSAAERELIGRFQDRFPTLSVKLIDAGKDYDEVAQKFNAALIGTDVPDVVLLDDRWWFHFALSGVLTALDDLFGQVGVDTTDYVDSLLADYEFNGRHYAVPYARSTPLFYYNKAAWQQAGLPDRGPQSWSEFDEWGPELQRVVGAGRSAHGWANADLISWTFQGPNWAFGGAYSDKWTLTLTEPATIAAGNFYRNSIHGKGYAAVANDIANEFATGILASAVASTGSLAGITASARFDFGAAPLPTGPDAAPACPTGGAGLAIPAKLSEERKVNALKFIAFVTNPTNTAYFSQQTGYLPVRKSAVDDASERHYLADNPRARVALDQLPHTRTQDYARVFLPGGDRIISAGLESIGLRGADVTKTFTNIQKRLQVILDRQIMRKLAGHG

Compound | Kd [µM]
O=P(O)(O)O[C@H]1[C@H](O)[C@@H](O)[C@H](OP(=O)(O)OC[C@H](O)CO)[C@H](O)[C@@H]1O [GPI4P, glycerophosphoinositol-4-phosphate] | 290 ± 54.1
O=P(O)(OC[C@H](O)CO)O[C@@H]1[C@H](O)[C@H](O)[C@@H](O)[C@H](O)[C@H]1O [GPI, glycerophosphoinositol] | 1050 ± 313
